Consider 2 compounds from BindingDB's records for doi:10.1021/jm800476q (Bristol Myers Squibb, 2008).

Each structure is given as a SMILES string.

In this experiment the target is Hepatocyte growth factor receptor (Homo sapiens, UniProt P08581). The experiment can be described thus: Met Kinase Inhibition Assay. The following applies: pH 7.5; 30 °C.
Chain of Hepatocyte growth factor receptor (P08581 whole entry): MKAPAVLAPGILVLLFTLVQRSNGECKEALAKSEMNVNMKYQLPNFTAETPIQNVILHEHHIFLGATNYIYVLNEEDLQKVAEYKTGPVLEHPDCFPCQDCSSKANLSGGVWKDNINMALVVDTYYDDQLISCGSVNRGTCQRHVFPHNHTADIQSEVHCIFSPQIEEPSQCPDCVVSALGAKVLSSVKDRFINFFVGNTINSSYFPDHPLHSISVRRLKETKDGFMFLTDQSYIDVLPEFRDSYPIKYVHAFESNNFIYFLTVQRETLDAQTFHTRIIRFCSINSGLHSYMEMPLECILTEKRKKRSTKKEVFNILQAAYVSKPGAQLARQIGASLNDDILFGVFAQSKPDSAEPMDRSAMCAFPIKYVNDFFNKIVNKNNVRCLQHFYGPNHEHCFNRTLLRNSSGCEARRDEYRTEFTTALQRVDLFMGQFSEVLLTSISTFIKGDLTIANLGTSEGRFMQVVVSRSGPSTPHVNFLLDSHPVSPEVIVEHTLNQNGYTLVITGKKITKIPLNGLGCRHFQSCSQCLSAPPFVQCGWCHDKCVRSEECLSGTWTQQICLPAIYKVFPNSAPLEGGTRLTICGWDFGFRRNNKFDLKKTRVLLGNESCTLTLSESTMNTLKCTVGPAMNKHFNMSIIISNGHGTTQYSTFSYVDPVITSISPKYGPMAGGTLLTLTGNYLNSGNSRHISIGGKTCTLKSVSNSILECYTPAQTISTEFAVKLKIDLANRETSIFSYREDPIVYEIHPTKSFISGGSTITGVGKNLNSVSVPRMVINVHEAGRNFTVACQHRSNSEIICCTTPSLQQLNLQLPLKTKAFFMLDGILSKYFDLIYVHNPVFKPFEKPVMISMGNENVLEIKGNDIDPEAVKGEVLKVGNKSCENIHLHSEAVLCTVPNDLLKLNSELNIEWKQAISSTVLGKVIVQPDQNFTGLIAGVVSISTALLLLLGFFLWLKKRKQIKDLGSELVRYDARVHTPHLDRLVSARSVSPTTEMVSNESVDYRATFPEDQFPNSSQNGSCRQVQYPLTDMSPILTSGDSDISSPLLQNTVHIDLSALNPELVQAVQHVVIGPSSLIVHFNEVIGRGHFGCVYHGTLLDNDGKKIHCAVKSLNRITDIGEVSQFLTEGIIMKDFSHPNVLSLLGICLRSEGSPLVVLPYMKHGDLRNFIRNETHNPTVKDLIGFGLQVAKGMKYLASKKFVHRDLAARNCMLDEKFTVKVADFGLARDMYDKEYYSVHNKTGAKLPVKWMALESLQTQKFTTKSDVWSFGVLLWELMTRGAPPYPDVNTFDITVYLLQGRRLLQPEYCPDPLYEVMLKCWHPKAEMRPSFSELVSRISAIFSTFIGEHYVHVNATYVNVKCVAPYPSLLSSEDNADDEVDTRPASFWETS

The IC50 is the concentration that gives 50% inhibition. Low values mean higher potency, high ones lower potency. Take `COc1ccc(-n2cc(C(=O)Nc3ccc(Oc4ccnc5[nH]ccc45)c(F)c3)c(=O)c(-c3ccc(F)cc3)c2)cc1F` [1-(3-fluoro-4-methoxyphenyl)-N-(3-fluoro-4-{1H-pyrrolo[2,3-b]pyridin-4-yloxy}phenyl)-5-(4-fluorophenyl)-4-oxo-1,4-dihydropyridine-3-carboxamide]: inhibition was half-maximal at 2.3 nM (IC50).

Regarding `O=C(Nc1ccc(Oc2ccnc3[nH]ccc23)c(F)c1)c1cn(-c2ccc(Cl)c(F)c2)cc(-c2ccc(F)cc2)c1=O` [1-(4-chloro-3-fluorophenyl)-N-(3-fluoro-4-{1H-pyrrolo[2,3-b]pyridin-4-yloxy}phenyl)-5-(4-fluorophenyl)-4-oxo-1,4-dihydropyridine-3-carboxamide], the 50% inhibitory concentration (IC50) came out at 5 nM.
